Measured values from PubChem BioAssay AID366 (MTDP, 2006).
Values joined by “and” are separate entries in the source; they are usually repeats but may differ in a detail not shown here. Identical values can stand only once. Active and inactive are the calls of the source. The rule behind the calls is not given here.

Biological target: Ribonuclease H1 (Homo sapiens) (UniProt O60930)
Assay: human RNase H1 inhibitors, dose response, biochemical, FRET RNA/DNA duplex cleavage (AID 366);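 note: potency is for inhibitors that lower RNA cleavage and so lower fluorescence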
Settings: fluorescence

Chain of Ribonuclease H1 (Homo sapiens) (O60930 whole entry, looked up): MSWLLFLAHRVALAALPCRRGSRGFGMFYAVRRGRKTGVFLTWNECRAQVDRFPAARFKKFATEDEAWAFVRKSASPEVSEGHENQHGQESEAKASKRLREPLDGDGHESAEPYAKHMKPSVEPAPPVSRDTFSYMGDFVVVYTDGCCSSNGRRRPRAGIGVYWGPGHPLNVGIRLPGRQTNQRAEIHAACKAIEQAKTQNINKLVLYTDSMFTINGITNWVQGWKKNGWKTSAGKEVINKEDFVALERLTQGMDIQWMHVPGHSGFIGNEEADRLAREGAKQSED

O=C(Nc1ccc(N2CCN(C(=O)c3ccccc3)CC2)cc1)c1ccc(-c2ccccc2)cc1
IC50: 350 nM

O=C1NC(=S)N(c2ccccc2F)C(=O)/C1=C/c1ccc(I)o1
IC50: 3000 nM

Cc1ccccc1-n1c(O)c(C=C2C=CC=N2)c(=O)[nH]c1=S
IC50: 5000 nM

CC(C)=CCC1=C(O)[C@@](O)(CC=C(C)C)C(=O)C(C(=O)CC(C)C)=C1O
IC50: 2000 nM

COC([CH2][Hg][n]1cnc2c1c(=O)n(C)c(=O)n2C)CN1C(=O)c2ccccc2S1(=O)=O (stereo not given)
IC50: 3300 nM

O=C1/C(=C/c2ccc(O)c(O)c2)SC(=S)N1C1CCCCC1
IC50: 1800 nM

COc1ccc(/C=C\C(=O)c2c(-c3ccccc3)c3cc(C)ccc3[nH]c2=O)c(OC)c1
IC50: 8400 nM

O=C1/C(=C/c2ccco2)C(=O)N(c2ccc(Br)cc2)C(=S)N1c1ccccc1
IC50: 4400 nM

O=C1NC(=S)N(c2ccc(Cl)cc2)C(=O)/C1=C/c1ccco1
IC50: inactive

Cc1ccc(S(=O)(=O)/N=C2\C=C(Sc3ncn[nH]3)C(=O)c3ccccc32)cc1
IC50: 9200 nM

Cc1ccc(C)n1-c1ccc(SCC(=O)O)cc1
IC50: 1200 nM

Cc1sc2nc(-c3ccc([N+](=O)[O-])cc3)[nH]c(=O)c2c1C
IC50: 900 nM

COc1cccc(-c2nc3cc(NC(=O)/C=C\c4ccccc4)ccc3o2)c1
IC50: 800 nM

O=C(O)C1CCCCC1c1c2ccc(=O)c(O)c-2oc2c(O)c(O)ccc12 (stereo not given)
IC50: 100 nM

CCc1c(O)c2c(c(O)c1C(C)=O)C(=O)c1c(cc(O)c(C(=O)O)c1C(=O)O)C2=O
IC50: 3600 nM

O=C1NN(c2ccc(I)cc2)C(=O)/C1=C\c1ccc(O)c(O)c1
IC50: 8300 nM

CCCCCCCCCCCCCCCCCCOCC(O)CO (stereo not given)
IC50: > 100000 nM (inactive)

Ic1ccc2c(c1)N(c1ccccc1)c1cc(N=c3ccc4nc5ccc(I)cc5n(-c5ccccc5)c-4c3)ccc1N2
IC50: 300 nM

Cc1sc(NC(=O)C2CCCO2)c(C(N)=O)c1C (stereo not given)
IC50: inactive

FC(F)(F)c1nc2ccc(SSc3ccc4nc(C(F)(F)F)[nH]c4c3)cc2[nH]1
IC50: 1700 nM

O=C1C=C(NCCc2cc(Br)c(O)c(Br)c2)C(=O)c2ncccc21
IC50: 6800 nM

O=C(O)c1cc(-c2ccc(/C=C3/Sc4ccccc4C3=O)o2)ccc1O
IC50: 400 nM

Cc1ccc(-c2c(C#N)c(SCC(=O)c3ccc(O)c(O)c3)nc3c2CCCC3)o1
IC50: 1500 nM

Cc1ccc(NC(=O)c2c(NC(=O)c3ccccc3F)sc3c2CCCCC3)cc1
IC50: 320 nM

O=S(=O)(O)c1cc(N=[N+]([O-])c2cc(S(=O)(=O)O)c3ccccc3c2)cc2ccccc12
IC50: 500 nM

CC(C)c1ccc(O)c(=O)cc1
IC50: inactive

Cc1cc(-c2ccco2)c(C#N)c(SCC(=O)c2ccc(O)c(O)c2)n1
IC50: 1800 nM

O=C1NC(=S)S/C1=C/c1cccc(OCc2ccc(Cl)c(Cl)c2)c1
IC50: 7300 nM

O=C(Oc1ccccc1)Oc1c(Cl)cc2oc(=O)sc2c1Cl
IC50: 3000 nM

Cc1ccc(C2COc3cc(O)c(O)cc3C2)cc1 (stereo not given)
IC50: 4800 nM

O=C1Nc2ccc(I)cc2C1(O)N1CCOCC1 (stereo not given)
IC50: 400 nM

CC(C)=Cc1cc(CCC/C(C)=C/Cc2c(O)cc(C)c(C(=O)O)c2O)co1
IC50: 1100 nM

COc1cccc2cc(C(N)=O)c(=O)oc12
IC50: inactive

Nc1nc(Sc2ccc([N+](=O)[O-])c3nonc23)c2[nH]cnc2n1
IC50: inactive

O=C1c2cc([N+](=O)[O-])ccc2-c2ccc3c4ccc5c6c(ccc(c7ccc1c2c73)c64)C(=O)c1cc([N+](=O)[O-])ccc1-5
IC50: 400 nM

N#C/C(=C\Nc1ccc(S(=O)(=O)Nc2nccs2)cc1)c1nc(-c2ccc(Cl)cc2)cs1
IC50: 500 nM

COc1ccc(NC(=O)c2c(N)sc(-c3ccccc3)c2C)cc1
IC50: 2000 nM

N#Cc1c(N)nc(SCC(=O)c2ccc(O)c(O)c2)c(C#N)c1-c1ccc(O)cc1
IC50: 1300 nM

S=C(Nc1ccc2c(c1)Cc1ccccc1-2)Nc1ccc2c(c1)Cc1ccccc1-2
IC50: 1300 nM

CC(C)=CCc1ccc(O)c(=O)cc1C(C)C
IC50: inactive

Nc1ccc(S(=O)(=O)O)c2cccc(O)c12
IC50: 4500 nM

O=C1c2ccccc2C(=O)N1c1ccc(-c2nc3ccc(N4C(=O)c5ccccc5C4=O)cc3[nH]2)cc1
IC50: 540 nM

Cc1ccc(C(=O)Nc2sc(C)c(C)c2C(N)=O)cc1
IC50: 800 nM

COc1cc(/C=N\c2sc3c(c2C(=O)NCc2ccccc2)CCCC3)cc(Cl)c1O
IC50: 2000 nM

O=C(O)C1Nc2c(Cl)cc(Cl)cc2C2C=CCC12 (stereo not given)
IC50: 8800 nM

c1ccc(C(c2cccc3c2ccc2ccccc23)C(c2ccccc2)c2cccc3c2ccc2ccccc23)cc1 (stereo not given)
IC50: 3600 nM

O=C1NC(=S)N(c2cccc(Cl)c2)C(=O)/C1=C\C=C\c1ccco1
IC50: 6000 nM

Cc1ccc(-c2cc(C(=O)Nc3sc(C(=O)OC(C)C)c(C)c3C(N)=O)c3ccccc3n2)s1
IC50: 800 nM

CC(C)=CCC[C@]1(C)[C@@H](CC=C(C)C)C[C@@]2(CC=C(C)C)C(=O)/C(=C(\O)c3ccc(O)c(O)c3)C(=O)[C@]1(CC=C(C)C)C2=O
IC50: 3200 nM

CCOC(=O)Oc1c(OC)cc(C(=O)O[C@@H]2C[C@@H]3CN4CCc5c([nH]c6cc(OC)ccc56)[C@H]4C[C@@H]3[C@H](C(=O)OC)[C@H]2OC)cc1OC
IC50: inactive

C[C@@H]1[C@H](O)c2c(c3c(c4c(-c5ccccc5)cc(=O)oc24)OC(C)(C)C=C3)O[C@@H]1C
IC50: 4800 nM

CCCc1cc(=O)oc2c3c(c4c(c12)OC(C)(C)C=C4)O[C@@H](C)[C@H](C)[C@@H]3F
IC50: 6800 nM

O=C(O)CCc1c2ccc(=O)c(O)c-2oc2c(O)c(O)ccc12
IC50: 70 nM

C=C1C(=O)O[C@@H]2/C=C(\C)CC/C=C(\C(=O)O)CC/C=C(\C)CC[C@H]12
IC50: 3100 nM

C[C@]12Cc3cnc(-c4ccccc4)nc3C[C@@H]1CC[C@@H]1[C@@H]2CC[C@@]2(C)[C@H]1CC[C@]2(C)O
IC50: 2800 nM

Cc1cc(-c2ccc(C=C3C(=O)NC(=S)NC3=O)o2)c([N+](=O)[O-])cc1C
IC50: 4000 nM

Cc1ccc(C)n1-c1ccc(Br)cc1C(=O)O
IC50: 9000 nM

CC(C)OC(=O)c1cc(O)c(O)c(O)c1
IC50: > 100000 nM (inactive)

Cc1cc(O)c2c(c1O)C(=O)C13C(=C2O)C(=O)C2C(O)C1C1C(O)C3C(=O)C3=C(O)c4c(O)cc(C)c(O)c4C(=O)C321 (stereo not given)
IC50: 4000 nM

COC(=O)c1cc2c3c(ccc2[nH]1)N(C(=O)c1cc2c4c(ccc2[nH]1)N(C(=O)c1cc2c5c(ccc2[nH]1)N(C(N)=O)CC5)CC4)CC3
IC50: 800 nM

COc1ccc(C2COc3cc(O)c(O)cc3C2)cc1 (stereo not given)
IC50: 2800 nM

O=[N+]([O-])c1c(Cl)cccc1-c1c[nH]cc1Cl
IC50: > 100000 nM (inactive)

Oc1ccc(/C=N/Nc2nncc(-c3ccccc3)n2)c(O)c1O
IC50: 1100 nM

Cc1onc(-c2ccccc2)c1C(=O)Nc1sc(C)c(C)c1C(N)=O
IC50: 8000 nM

CC(C)=CCC/C(C)=C/Cc1cc(/C=C/c2cc(O)c(C/C=C(\C)CCC=C(C)C)c(O)c2)cc(O)c1O
IC50: 1300 nM

Cc1ccc(-n2c(/C=C/c3ccc(O)c(O)c3)nc3ccccc3c2=O)cc1
IC50: 7300 nM

Cc1ccc(S(=O)(=O)N=C2C=CC(=O)C=C2)c(C)c1
IC50: 3100 nM

COc1ccc(N2C(=O)/C(=C\c3cn(CC(=O)Nc4ccccc4)c4ccccc34)C(=O)NC2=S)cc1
IC50: 620 nM

O=C1c2ccc(O)cc2C(=O)c2c1ccc(O)c2O
IC50: 7000 nM

CN(C)CN1CSC(=S)N(CN(C)C)C1
IC50: inactive

COc1ccc(C(=O)NC(=S)Nc2ccc3nn(-c4ccc(C)c(Cl)c4)nc3c2)cc1[N+](=O)[O-]
IC50: 560 nM

COc1cc(-c2[o+]c3cc(O)cc(O)c3cc2O)cc(O)c1O
IC50: 2400 nM and 4000 nM

Oc1cc(CN2COc3ccccc32)c(O)cc1CNC1CCCCC1
IC50: inactive

CC(C)=CCC(O)C1=CC(=O)c2c(O)ccc(O)c2C1=O (stereo not given)
IC50: 4200 nM

Oc1c(Br)cc(/C=N/Nc2nnc3c(n2)[nH]c2ccccc23)c(Br)c1O
IC50: 300 nM

O=C1C=CC2=C3c4cc(O)c(O)cc4CC3(O)COC2=C1O (stereo not given)
IC50: 200 nM

CC(C)c1cccc(O)c(=O)c1
IC50: > 100000 nM (inactive)

CCOc1ccc(C2=CC(=O)C=CC2=O)cc1
IC50: 5700 nM

N#Cc1c(NC(=O)C(F)(F)F)sc2c3c(=O)c4ccccc4c(=O)c=3oc3ccccc3c12
IC50: inactive

Cc1ccc(NC(=O)c2c(NC(=O)C(F)(F)F)sc(-c3ccccc3)c2C)c(C)c1
IC50: 7500 nM

CC(=O)C1=C(O)[C@@]2(O)C(=O)c3c(c(C)c4ccc(C)c(O)c4c3O)C[C@H]2[C@@H](N)C1=O
IC50: 700 nM

Cc1ccc(S(=O)(=O)/N=C2\C=CC(=O)C=C2Cl)cc1
IC50: 3400 nM

CN(C)CS/C(N)=N/C(O)C(Cl)(Cl)Cl (stereo not given)
IC50: inactive

CCOc1cccc(N2C(=O)/C(=C/c3cn(CC(=O)OC)c4ccccc34)C(=O)NC2=S)c1
IC50: 920 nM

Oc1cc(O)c2cc(O)c(-c3ccc(O)c(O)c3)[o+]c2c1
IC50: 100 nM

O=C1C(Cl)=CC(=NS(=O)(=O)c2ccccc2)C=C1Cl
IC50: 4300 nM

Cc1sc(NC(=O)c2ccco2)c(C(N)=O)c1C
IC50: inactive

Cc1ccc(S(=O)(=O)N=C2C=C(Cl)C(=O)C(Br)=C2)cc1
IC50: 4700 nM

CN(C)S(=O)(=O)c1ccc(Nc2ccc(O)c3c2C(=O)c2c([N+](=O)[O-])ccc(O)c2C3=O)cc1
IC50: 800 nM

C[C@H]1[C@H](O)c2c(c3c(c4c(-c5ccccc5)cc(=O)oc24)OC(C)(C)C=C3)O[C@@H]1C
IC50: 9000 nM

NC(=O)c1c(N)sc2c1CCCCC2
IC50: inactive

COc1ccc(-c2nc3sc(-c4ccc(OC)cc4)nc3s2)cc1
IC50: inactive

COc1cc(C)cc2c(-c3c(O)cc(O)c4c3C[C@@H](C)N[C@@H]4C)cc(-c3cc(-c4c(O)cc(O)c5c4C[C@@H](C)N[C@@H]5C)c4cc(C)cc(OC)c4c3O)c(O)c12
IC50: 2000 nM

O=[N+]([O-])c1ccc(S(=O)(=O)Cc2ccccc2)c2nonc12
IC50: 5000 nM

O=C(NC(=S)Nc1cc(-c2nc3ccccc3s2)ccc1Cl)c1ccc(F)cc1
IC50: 800 nM

O=S(=O)(Nc1cccc(C(F)(F)F)c1)c1ccc2ccccc2c1
IC50: inactive

O=C1NC(=S)N(c2ccccc2F)C(=O)/C1=C/c1ccc(OCc2cccc(C(=O)O)c2)cc1
IC50: 9000 nM

Cc1cc(Cl)ccc1OCC(=O)Nc1sc(C)c(C)c1C(N)=O
IC50: 4300 nM

O=c1oc2ccccc2c(O)c1/C=C1\C=Nc2ccccc21
IC50: 9700 nM

Nc1c(S(=O)(=O)O)cc(Nc2cccc(S(N)(=O)=O)c2)c2c1C(=O)c1ccccc1C2=O
IC50: 2600 nM
